# Measured values from patent publication US6849644B2, “Isoquinoline derivatives useful in the treatment of CNS disorders” (SmithKline Beecham p.l.c., priority 2000, dated 2005).
# Counter-ions that a name gives are not always drawn.
# Molecular target: T1, human cloned 5-HT6 receptors (Homo sapiens, UniProt P50406)
# T1 construct: expressed in transfected cells
# Assay: 5-HT6 receptor binding affinity (procedures outlined in WO 98/27081)
# Source text: Compounds can be tested following the procedures outlined in WO 98/27081.
# T1 sequence (P50406 whole entry): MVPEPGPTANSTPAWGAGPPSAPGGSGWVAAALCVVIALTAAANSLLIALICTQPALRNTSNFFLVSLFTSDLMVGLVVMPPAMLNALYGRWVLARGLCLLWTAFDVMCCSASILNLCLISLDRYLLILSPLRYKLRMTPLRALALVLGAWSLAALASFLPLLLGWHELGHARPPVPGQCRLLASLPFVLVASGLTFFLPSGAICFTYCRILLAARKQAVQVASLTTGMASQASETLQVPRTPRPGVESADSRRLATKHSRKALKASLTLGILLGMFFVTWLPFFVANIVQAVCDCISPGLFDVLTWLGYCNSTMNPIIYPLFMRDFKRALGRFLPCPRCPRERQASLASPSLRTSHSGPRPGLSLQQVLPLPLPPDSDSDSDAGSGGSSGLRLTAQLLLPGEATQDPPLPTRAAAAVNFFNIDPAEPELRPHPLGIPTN
row,SMILES,Ki
1,"COc1ccc2ccn(S(=O)(=O)c3ccc4c(c3)CNCC4)c2c1 [Example E19, 7-(6-Methoxy-indole-1-sulfonyl)-1,2,3,4-tetrahydro-isoquinoline]",1.26 to 6.31 nM
2,"O=S(=O)(c1ccc2c(c1)CNCC2)n1c2c(c3ccccc31)CCCC2 [Example E9, 9-(1,2,3,4-Tetrahydro-isoquinoline-7-sulfonyl)-2,3,4,9-tetrahydro-1H-carbazole]",1.26 to 6.31 nM
3,"O=S(=O)(c1ccc2c(c1)CNCC2)n1ccc2cc(F)c(F)cc21 [Example E23, 7-(5,6-Difluoro-indole-1-sulfonyl)-1,2,3,4-tetrahydro-isoquinoline]",1.26 to 6.31 nM
4,"O=S(=O)(c1ccc2c(c1)CNCC2)n1cc(-c2ccccc2)c2ccccc21 [Example E35, 7-(3-Phenyl-indole-1-sulfonyl)-1,2,3,4-tetrahydro-isoquinoline Hydrochloride]",1.26 to 6.31 nM
5,"O=S(=O)(c1ccc2c(c1)CNCC2)n1c(-c2ccccc2)cc2cc(F)ccc21 [Example E13, 7-(5-Fluoro-2-phenyl-indole-1-sulfonyl)-1,2,3,4-tetrahydro-isoquinoline]",1.26 to 6.31 nM
6,"Cc1cccc2c1ccn2S(=O)(=O)c1ccc2c(c1)CNCC2 [Example E21, 7-(4-Methyl-indole-1-sulfonyl)-1,2,3,4-tetrahydro-isoquinoline]",1.26 to 6.31 nM
7,"O=S(=O)(c1ccc2c(c1)CNCC2)n1ccc2ccc(F)cc21 [Example E22, 7-(6-Fluoro-indole-1-sulfonyl)-1,2,3,4-tetrahydro-isoquinoline]",1.26 to 6.31 nM
8,"O=S(=O)(c1ccc2c(c1)CNCC2)n1ccc2ccc(C(F)(F)F)cc21 [Example E24, 7-(6-Trifluoromethyl-indole-1-sulfonyl)-1,2,3,4-tetrahydro-isoquinoline]",1.26 to 6.31 nM
9,"O=S(=O)(c1ccc2c(c1)CNCC2)n1ccc2ccc(Cl)cc21 [Example E16, 7-(6-Chloro-indole-1-sulfonyl)-1,2,3,4-tetrahydro-isoquinoline]",1.26 to 6.31 nM
10,"O=S(=O)(c1ccc2c(c1)CNCC2)n1c2ccccc2c2ccccc21 [Example E26, 9-(1,2,3,4-tetrahydro-isoquinoline-7-sulfonyl)-9H-carbazole]",1.26 to 6.31 nM
11,"O=S(=O)(c1ccc2c(c1)CNCC2)n1ccc2c(Cl)cccc21 [Example E17, 7-(4-Chloro-indole-1-sulfonyl)-1,2,3,4-tetrahydro-isoquinoline]",1.26 to 6.31 nM
12,"O=S(=O)(c1ccc2c(c1)CNCC2)n1ccc2ccccc21 [Example E1, 7-(Indole-1-sulfonyl)-1,2,3,4-tetrahydro-isoquinoline Hydrochloride]",1.26 to 6.31 nM
13,"Cc1cn(S(=O)(=O)c2ccc3c(c2)CNCC3)c2ccccc12 [Example E10, 7-(3-Methyl-indole-1-sulfonyl)-1,2,3,4-tetrahydro-isoquinoline]",1.26 to 6.31 nM
14,"Cc1ccc2ccn(S(=O)(=O)c3ccc4c(c3)CNCC4)c2c1 [Example E20, 7-(6-Methyl-indole-1-sulfonyl)-1,2,3,4-tetrahydro-isoquinoline]",1.26 to 6.31 nM
